The subject of this assay is HCV RNA replication. Put plainly: RNA replication inhibition assay (luciferase reporter-linked HCV genome). The following applies: Hepatitis C virus, percentage of untreated control population; for activity at 5 µM: read-out: Residual Luciferase activity, 5 micromolar; for activity at 10 µM: read-out: Residual Luciferase activity, 10 micromolar. (Reporter assays use an easily measured gene product as a stand-in for the process of interest.)

Take `CCCN(CCC)Cc1nc2ccccc2n1Cc1ccc(Cl)cc1` [Compound 5]: the activity at 5 µM is less than 80% and the activity at 10 µM is less than 55%.

On to `COCC1CCN(Cc2nc3ccccc3n2Cc2ccc(Cl)cc2)C1` (stereo not drawn) [Compound 6], for which the activity at 5 µM is greater than 80% and the activity at 10 µM is less than 80%.

As for `COC(=O)C1CCN(Cc2nc3ccccc3n2Cc2ccc(Cl)cc2)C1` (stereo not drawn) [Compound 7], the activity at 5 µM was greater than 80% and the activity at 10 µM was greater than 80%.

Consider `COC(=O)C1CCCN1Cc1nc2ccccc2n1Cc1ccc(Cl)cc1` (stereo not drawn) [Compound 8], for which the activity at 5 µM was less than 55% and the activity at 10 µM was less than 55%.

For `COCC1CCCN1Cc1nc2ccccc2n1Cc1ccc(Cl)cc1` (stereo not drawn) [Compound 10], the activity at 5 µM was less than 80% and the activity at 10 µM was less than 80%.

As for `O=C1CCCN1Cc1nc2ccccc2n1Cc1ccc(Cl)cc1` [Compound 12], the activity at 5 µM is less than 80% and the activity at 10 µM was less than 80%.

Consider `COC(=O)c1ccc(Cn2c(CN3CCCC3)nc3ccccc32)cc1` [Compound 14], for which the activity at 5 µM was less than 80% and the activity at 10 µM was less than 80%.

Consider `O=C(O)c1ccc(Cn2c(CN3CCCC3)nc3ccccc32)cc1` [Compound 15], for which the activity at 5 µM is greater than 80% and the activity at 10 µM is greater than 80%.

Consider `COC(=O)c1cccc(Cn2c(CN3CCCC3)nc3ccccc32)c1` [Compound 16], for which the activity at 5 µM is greater than 80% and the activity at 10 µM is greater than 80%.

Take `O=C(O)c1cccc(Cn2c(CN3CCCC3)nc3ccccc32)c1` [Compound 17]: the activity at 5 µM was greater than 80% and the activity at 10 µM is greater than 80%.

With `Clc1cccc(Cn2c(CN3CCCC3)nc3ccccc32)c1` [Compound 18], the activity at 5 µM is less than 80% and the activity at 10 µM is less than 80%.

Regarding `Clc1ccccc1Cn1c(CN2CCCC2)nc2ccccc21` [Compound 19], the activity at 5 µM is greater than 80% and the activity at 10 µM was greater than 80%.

Consider `c1ccc2c(c1)nc(CN1CCCC1)n2Cc1ccncc1` [Compound 20], for which the activity at 5 µM is greater than 80% and the activity at 10 µM is greater than 80%.

Regarding `c1cncc(Cn2c(CN3CCCC3)nc3ccccc32)c1` [Compound 21], the activity at 5 µM is greater than 80% and the activity at 10 µM is greater than 80%.

For `c1ccc2c(c1)nc(CN1CCCC1)n2CC1CCCCC1` [Compound 22], the activity at 5 µM is greater than 80% and the activity at 10 µM is less than 80%.

Turning to `O[C@H]1CCN(Cc2nc3ccccc3n2Cc2ccc(Cl)cc2)C1` [Compound 23], the activity at 5 µM is greater than 80% and the activity at 10 µM was greater than 80%.

Regarding `O[C@@H]1CCN(Cc2nc3ccccc3n2Cc2ccc(Cl)cc2)C1` [Compound 24], the activity at 5 µM is greater than 80% and the activity at 10 µM was greater than 80%.

Take `OC[C@@H]1CCCN1Cc1nc2ccccc2n1Cc1ccc(Cl)cc1` [Compound 25]: the activity at 5 µM is less than 80% and the activity at 10 µM is less than 55%.

As to `CC1CCC(C)N1Cc1nc2ccccc2n1Cc1ccc(Cl)cc1` (stereo not drawn) [Compound 26], the activity at 5 µM was greater than 80% and the activity at 10 µM was greater than 80%.

As for `Clc1ccc(Cn2c(CN3CCCCCC3)nc3ccccc32)cc1` [Compound 27], the activity at 5 µM was less than 80% and the activity at 10 µM is less than 55%.

For the molecule `Cc1ccc2c(c1)nc(CN1CCCC1)n2Cc1ccc(Cl)cc1` [Compound 28], the activity at 5 µM was greater than 80% and the activity at 10 µM is less than 55%.

As for `COCC1CCCN1Cc1nc2cc(C)ccc2n1Cc1ccc(Cl)cc1` (stereo not drawn) [Compound 29], the activity at 5 µM was greater than 80% and the activity at 10 µM was less than 55%.

Take `COCC1CCCN1Cc1nc2c(C)c(C)ccc2n1Cc1ccc(Cl)cc1` (stereo not drawn) [Compound 31]: the activity at 5 µM is less than 80% and the activity at 10 µM was less than 55%.

Take `Clc1ccc(Cn2c(CN3CCCC3)nc3ccccc32)s1` [Compound 32]: the activity at 5 µM is less than 80% and the activity at 10 µM is less than 80%.

Turning to `Cc1ccc2c(nc(CN3CCCC3=O)n2Cc2ccc(Cl)cc2)c1C` [Compound 33], the activity at 5 µM was greater than 80% and the activity at 10 µM is greater than 80%.

For the molecule `CC(=O)N1CCCC(Cn2c(CN3CCCC3)nc3ccccc32)C1` (stereo not drawn) [Compound 34], the activity at 5 µM is greater than 80% and the activity at 10 µM is greater than 80%.

For the molecule `CS(=O)(=O)N1CCCC(Cn2c(CN3CCCC3)nc3ccccc32)C1` (stereo not drawn) [Compound 35], the activity at 5 µM is greater than 80% and the activity at 10 µM is greater than 80%.

Take `c1ccc2c(c1)nc(CN1CCCC1)n2CC1CCNCC1` [Compound 36]: the activity at 5 µM was less than 80% and the activity at 10 µM was greater than 80%.

In the case of `CC(=O)N1CCC(Cn2c(CN3CCCC3)nc3ccccc32)CC1` [Compound 37], the activity at 5 µM was less than 80% and the activity at 10 µM is greater than 80%.

For `CS(=O)(=O)N1CCC(Cn2c(CN3CCCC3)nc3ccccc32)CC1` [Compound 38], the activity at 5 µM is less than 80% and the activity at 10 µM is greater than 80%.

For the molecule `c1ccc2c(c1)nc(CN1CCCC1)n2CC1CCCNC1` (stereo not drawn) [Compound 39], the activity at 5 µM was less than 80% and the activity at 10 µM was less than 80%.

As for `Cc1ccc(Cn2c(CN3CCCC3)nc3ccccc32)cc1` [Compound 40], the activity at 5 µM was less than 80% and the activity at 10 µM is less than 80%.

Turning to `CC(C)c1ccc(Cn2c(CN3CCCC3)nc3ccccc32)cc1` [Compound 41], the activity at 5 µM is less than 80% and the activity at 10 µM was less than 80%.

Turning to `FC(F)Oc1ccc(Cn2c(CN3CCCC3)nc3ccccc32)cc1` [Compound 42], the activity at 5 µM was greater than 80% and the activity at 10 µM was less than 80%.

Consider `Clc1ccc(Cn2c(-c3cncs3)nc3ccccc32)cc1` [Compound 43], for which the activity at 5 µM is less than 80% and the activity at 10 µM is less than 55%.

For `O=C(O)c1ccc2c(c1)ncn2Cc1ccc(Cl)cc1` [Compound 44], the activity at 5 µM was less than 80% and the activity at 10 µM is greater than 80%.

For the molecule `O=C(O)c1ccc2ncn(Cc3ccc(Cl)cc3)c2c1` [Compound 45], the activity at 5 µM is greater than 80% and the activity at 10 µM was greater than 80%.

As to `Clc1ccc(CCn2cnc3ccccc32)cc1` [Compound 46], the activity at 5 µM was greater than 80% and the activity at 10 µM was less than 80%.

For the molecule `Cc1cc2nc(CN3CCC[C@H]3CO)n(Cc3ccc(Cl)cc3)c2cc1C` [Compound 47], the activity at 5 µM is less than 80% and the activity at 10 µM was less than 80%.

For the molecule `Cc1cc2nc(CN3CCC[C@@H]3CO)n(Cc3ccc(Cl)cc3)c2cc1C` [Compound 48], the activity at 5 µM was greater than 80% and the activity at 10 µM is less than 80%.

For `Cc1cc2nc(CN3CCCC3C)n(Cc3ccc(Cl)cc3)c2cc1C` (stereo not drawn) [Compound 49], the activity at 5 µM was less than 55% and the activity at 10 µM was less than 55%.

`Cc1cc2nc(CN3CCC[C@H]3CN3CCCC3)n(Cc3ccc(Cl)cc3)c2cc1C` [Compound 50]: the activity at 5 µM is less than 20% and the activity at 10 µM was less than 20%.

Turning to `Cc1cc2nc(CN3CCCC3c3ccccn3)n(Cc3ccc(Cl)cc3)c2cc1C` (stereo not drawn) [Compound 51], the activity at 5 µM was less than 20% and the activity at 10 µM was less than 20%.

Regarding `Cc1cc2nc(CN3CCCC3C(N)=O)n(Cc3ccc(Cl)cc3)c2cc1C` (stereo not drawn) [Compound 52], the activity at 5 µM was less than 80% and the activity at 10 µM is less than 80%.

Regarding `Cc1ccc2c(c1)ncn2Cc1ccc(Cl)cc1` [Compound 53], the activity at 5 µM is less than 55% and the activity at 10 µM is less than 20%.

Consider `Fc1cc2ncn(Cc3ccc(Cl)cc3)c2cc1Cl` [Compound 55], for which the activity at 5 µM is less than 80% and the activity at 10 µM was less than 80%.

As for `COc1ccc2c(c1)ncn2Cc1ccc(Cl)cc1` [Compound 56], the activity at 5 µM is less than 80% and the activity at 10 µM was less than 55%.

With `COc1cc2ncn(Cc3ccc(Cl)cc3)c2cc1OC` [Compound 57], the activity at 5 µM is less than 80% and the activity at 10 µM was less than 55%.

Regarding `Clc1ccc(Cn2cnc3cc(Cl)ccc32)cc1` [Compound 58], the activity at 5 µM was less than 80%.

Turning to `Cc1ccc2c(ncn2Cc2ccc(Cl)cc2)c1C` [Compound 59], the activity at 5 µM was less than 55% and the activity at 10 µM was less than 55%.

Take `Oc1ccc2c(c1)ncn2Cc1ccc(Cl)cc1` [Compound 60]: the activity at 5 µM is less than 20% and the activity at 10 µM is less than 20%.

Turning to `Oc1ccc2ncn(Cc3ccc(Cl)cc3)c2c1` [Compound 61], the activity at 5 µM is greater than 80% and the activity at 10 µM was less than 80%.

For the molecule `Cc1cc2nc(CN3CCCC3=O)n(Cc3ccc(Cl)cc3)c2cc1C` [Compound 63], the activity at 5 µM was less than 80% and the activity at 10 µM is greater than 80%.

Regarding `Clc1ccc(Cn2cnc3cc4c(cc32)OCCO4)cc1` [Compound 64], the activity at 5 µM is less than 80% and the activity at 10 µM is less than 80%.

On to `Cc1cc2ncn(Cc3ccc(Cl)cc3)c2cc1Cl` [Compound 65], for which the activity at 5 µM is less than 80% and the activity at 10 µM is less than 55%.

Consider `Cc1cc2c(ncn2Cc2ccc(Cl)cc2)c([N+](=O)[O-])c1C` [Compound 66], for which the activity at 5 µM is less than 80% and the activity at 10 µM is less than 55%.

For the molecule `Cc1cc2c(ncn2Cc2ccc(Cl)cc2)c(N)c1C` [Compound 67], the activity at 5 µM is less than 80% and the activity at 10 µM is less than 80%.

With `CC(=O)Nc1c(C)c(C)cc2c1ncn2Cc1ccc(Cl)cc1` [Compound 68], the activity at 5 µM is greater than 80% and the activity at 10 µM was greater than 80%.

In the case of `Cc1cc2c(ncn2Cc2ccc(Cl)cc2)c(NC(=O)C(C)C)c1C` [Compound 69], the activity at 5 µM was greater than 80% and the activity at 10 µM was less than 80%.

For `Cc1cc2c(ncn2Cc2ccc(Cl)cc2)c(NC(=O)C(F)(F)F)c1C` [Compound 70], the activity at 5 µM is greater than 80% and the activity at 10 µM was greater than 80%.

For `Cc1cc2c(ncn2Cc2ccc(Cl)cc2)c(NC(=O)c2ccccc2)c1C` [Compound 71], the activity at 5 µM is greater than 80% and the activity at 10 µM is greater than 80%.

For `CCCCNC(=O)Nc1c(C)c(C)cc2c1ncn2Cc1ccc(Cl)cc1` [Compound 72], the activity at 5 µM is greater than 80% and the activity at 10 µM was greater than 80%.

For the origin of these results see patent publication US9101628B2, “Methods and composition of treating a flaviviridae family viral infection” (The Board of Trustees of the Leland Stanford Junior …, priority 2007, dated 2015).
